{
  "source": "paper PMC7385619",
  "about": "“A triple action CDK4/6-PI3K-BET inhibitor with augmented cancer cell cytotoxicity” (Cell Discovery, 2020)",
  "test_in_all_cases": "KINOMEscan assay (Eurofins DiscoverX)",
  "format_in_all_cases": "binding",
  "key": {"kinome (kinase panel) [1]": {"target": "T1, kinome (kinase panel) (Homo sapiens, UniProt O75460)", "T1 construct": "purchased Eurofins DiscoverX", "settings": "ERN1; 1000 nM; read-out: Percent Control"}, "kinome (kinase panel) [2]": {"target": "T2, kinome (kinase panel) (Homo sapiens, UniProt Q14289)", "T2 construct": "purchased Eurofins DiscoverX", "settings": "PYK2 (Entrez PTK2B); 1000 nM; read-out: Percent Control"}, "kinome (kinase panel) [3]": {"target": "T3, kinome (kinase panel) (Homo sapiens, UniProt Q00532)", "T3 construct": "purchased Eurofins DiscoverX", "settings": "CDKL1; 1000 nM; read-out: Percent Control"}, "kinome (kinase panel) [4]": {"target": "T4, kinome (kinase panel) (Homo sapiens, UniProt P50750)", "T4 construct": "purchased Eurofins DiscoverX", "settings": "CDK9; 1000 nM; read-out: Percent Control"}, "kinome (kinase panel) [5]": {"target": "T5, kinome (kinase panel) (Homo sapiens, UniProt Q8IVW4)", "T5 construct": "purchased Eurofins DiscoverX", "settings": "CDKL3; 1000 nM; read-out: Percent Control"}, "kinome (kinase panel) [6]": {"target": "T6, kinome (kinase panel) (Homo sapiens, UniProt P00519, E255K)", "T6 construct": "purchased Eurofins DiscoverX", "T6 sequence (P00519 whole entry E255K)": "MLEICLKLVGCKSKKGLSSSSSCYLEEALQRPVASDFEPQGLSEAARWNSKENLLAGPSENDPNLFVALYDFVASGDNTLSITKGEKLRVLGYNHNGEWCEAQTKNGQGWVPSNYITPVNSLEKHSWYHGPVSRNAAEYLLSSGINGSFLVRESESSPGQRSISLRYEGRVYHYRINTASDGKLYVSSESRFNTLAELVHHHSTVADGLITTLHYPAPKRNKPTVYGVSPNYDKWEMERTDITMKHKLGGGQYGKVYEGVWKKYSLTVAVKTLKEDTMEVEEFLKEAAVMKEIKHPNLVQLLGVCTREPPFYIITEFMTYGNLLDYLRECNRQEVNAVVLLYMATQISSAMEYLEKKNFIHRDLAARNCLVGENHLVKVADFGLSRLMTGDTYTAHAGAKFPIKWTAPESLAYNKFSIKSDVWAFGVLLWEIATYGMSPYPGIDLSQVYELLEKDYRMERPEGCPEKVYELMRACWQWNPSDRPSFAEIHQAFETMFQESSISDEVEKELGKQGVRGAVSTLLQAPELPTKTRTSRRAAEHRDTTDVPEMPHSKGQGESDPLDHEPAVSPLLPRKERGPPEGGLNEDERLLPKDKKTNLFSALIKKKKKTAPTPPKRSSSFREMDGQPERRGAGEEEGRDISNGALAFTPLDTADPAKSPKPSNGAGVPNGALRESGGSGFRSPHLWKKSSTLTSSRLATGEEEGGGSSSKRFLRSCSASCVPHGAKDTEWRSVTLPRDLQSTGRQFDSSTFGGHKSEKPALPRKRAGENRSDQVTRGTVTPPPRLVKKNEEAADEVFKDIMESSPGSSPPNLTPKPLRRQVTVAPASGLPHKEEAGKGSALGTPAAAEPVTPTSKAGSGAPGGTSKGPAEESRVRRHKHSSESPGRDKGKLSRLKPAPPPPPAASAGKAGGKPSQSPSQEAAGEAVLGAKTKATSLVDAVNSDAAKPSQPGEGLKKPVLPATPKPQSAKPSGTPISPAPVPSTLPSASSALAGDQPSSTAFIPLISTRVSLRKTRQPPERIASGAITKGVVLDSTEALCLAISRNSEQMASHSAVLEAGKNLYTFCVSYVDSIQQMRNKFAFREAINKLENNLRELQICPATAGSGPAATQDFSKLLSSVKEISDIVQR", "settings": "read-out: Percent Control"}, "kinome (kinase panel) [7]": {"target": "T7, kinome (kinase panel) (Homo sapiens, UniProt P52564)", "T7 construct": "purchased Eurofins DiscoverX", "settings": "MEK6 (Entrez MAP2K6); 1000 nM; read-out: Percent Control"}, "kinome (kinase panel) [8]": {"target": "T8, kinome (kinase panel) (Homo sapiens, UniProt Q9HCP0)", "T8 construct": "purchased Eurofins DiscoverX", "settings": "CSNK1G1; 1000 nM; read-out: Percent Control"}, "kinome (kinase panel) [9]": {"target": "T9, kinome (kinase panel) (Homo sapiens, UniProt P49760)", "T9 construct": "purchased Eurofins DiscoverX", "settings": "CLK2; 1000 nM; read-out: Percent Control"}, "kinome (kinase panel) [10]": {"target": "T10, kinome (kinase panel) (Homo sapiens, UniProt P08069)", "T10 construct": "purchased Eurofins DiscoverX", "settings": "IGF1R; 1000 nM; read-out: Percent Control"}, "kinome (kinase panel) [11]": {"target": "T11, kinome (kinase panel) (Homo sapiens, UniProt Q9UM73)", "T11 construct": "purchased Eurofins DiscoverX", "T11 sequence (Q9UM73 19-1620)": "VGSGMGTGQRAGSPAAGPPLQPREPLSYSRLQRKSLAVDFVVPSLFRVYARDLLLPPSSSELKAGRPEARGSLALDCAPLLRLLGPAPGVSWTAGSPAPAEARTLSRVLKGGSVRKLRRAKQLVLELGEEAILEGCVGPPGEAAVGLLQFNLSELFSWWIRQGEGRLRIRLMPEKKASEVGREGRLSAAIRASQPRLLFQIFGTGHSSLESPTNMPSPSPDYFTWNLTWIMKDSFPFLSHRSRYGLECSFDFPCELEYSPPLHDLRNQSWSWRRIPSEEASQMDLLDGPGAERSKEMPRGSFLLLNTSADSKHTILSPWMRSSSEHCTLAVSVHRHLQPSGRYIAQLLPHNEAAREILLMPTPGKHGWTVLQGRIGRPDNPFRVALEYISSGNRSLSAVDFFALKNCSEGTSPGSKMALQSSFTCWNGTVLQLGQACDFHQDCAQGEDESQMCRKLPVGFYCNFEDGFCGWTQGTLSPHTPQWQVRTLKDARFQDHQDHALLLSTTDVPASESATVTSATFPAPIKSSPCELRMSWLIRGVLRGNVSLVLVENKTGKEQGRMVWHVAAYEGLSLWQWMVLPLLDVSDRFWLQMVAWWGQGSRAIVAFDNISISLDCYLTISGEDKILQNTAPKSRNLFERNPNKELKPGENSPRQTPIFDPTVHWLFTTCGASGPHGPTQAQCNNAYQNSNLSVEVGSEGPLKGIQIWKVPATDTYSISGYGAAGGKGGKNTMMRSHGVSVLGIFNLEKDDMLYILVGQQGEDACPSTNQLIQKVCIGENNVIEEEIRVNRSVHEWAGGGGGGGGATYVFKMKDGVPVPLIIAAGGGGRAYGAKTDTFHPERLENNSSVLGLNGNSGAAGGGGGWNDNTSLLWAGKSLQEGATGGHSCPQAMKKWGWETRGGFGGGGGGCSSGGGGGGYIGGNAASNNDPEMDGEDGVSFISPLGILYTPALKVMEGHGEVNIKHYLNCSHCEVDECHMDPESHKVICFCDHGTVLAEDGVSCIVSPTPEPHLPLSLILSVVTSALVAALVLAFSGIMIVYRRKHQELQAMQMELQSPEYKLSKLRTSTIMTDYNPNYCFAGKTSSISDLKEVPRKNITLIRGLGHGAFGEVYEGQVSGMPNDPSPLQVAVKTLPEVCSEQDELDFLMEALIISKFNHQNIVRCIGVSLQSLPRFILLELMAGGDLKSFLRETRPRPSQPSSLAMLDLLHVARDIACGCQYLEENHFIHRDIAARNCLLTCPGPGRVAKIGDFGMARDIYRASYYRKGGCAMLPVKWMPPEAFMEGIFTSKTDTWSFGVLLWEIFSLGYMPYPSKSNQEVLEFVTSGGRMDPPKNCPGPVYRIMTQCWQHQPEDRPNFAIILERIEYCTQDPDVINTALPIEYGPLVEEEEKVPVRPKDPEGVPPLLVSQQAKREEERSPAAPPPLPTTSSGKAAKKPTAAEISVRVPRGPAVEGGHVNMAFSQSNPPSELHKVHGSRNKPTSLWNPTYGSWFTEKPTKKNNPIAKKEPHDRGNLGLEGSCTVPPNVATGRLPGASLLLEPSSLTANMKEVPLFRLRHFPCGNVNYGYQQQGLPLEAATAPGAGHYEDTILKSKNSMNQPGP", "settings": "ALK; 1000 nM; read-out: Percent Control"}, "kinome (kinase panel) [12]": {"target": "T12, kinome (kinase panel) (Homo sapiens, UniProt P31751)", "T12 construct": "purchased Eurofins DiscoverX", "settings": "AKT2; 1000 nM; read-out: Percent Control"}, "kinome (kinase panel) [13]": {"target": "T13, kinome (kinase panel) (Homo sapiens, UniProt Q8NE63)", "T13 construct": "purchased Eurofins DiscoverX", "settings": "HIPK4; 1000 nM; read-out: Percent Control"}, "kinome (kinase panel) [14]": {"target": "T14, kinome (kinase panel) (Homo sapiens, UniProt P21709)", "T14 construct": "purchased Eurofins DiscoverX", "settings": "EPHA1; 1000 nM; read-out: Percent Control"}, "kinome (kinase panel) [15]": {"target": "T15, kinome (kinase panel) (Homo sapiens, UniProt Q8IWQ3)", "T15 construct": "purchased Eurofins DiscoverX", "settings": "BRSK2; 1000 nM; read-out: Percent Control"}, "kinome (kinase panel) [16]": {"target": "T16, kinome (kinase panel) (Homo sapiens, UniProt Q8TDR2)", "T16 construct": "purchased Eurofins DiscoverX", "settings": "STK35; 1000 nM; read-out: Percent Control"}, "kinome (kinase panel) [17]": {"target": "T17, kinome (kinase panel) (Homo sapiens, UniProt P00533)", "T17 construct": "purchased Eurofins DiscoverX", "settings": "EGFR; 1000 nM; read-out: Percent Control"}, "kinome (kinase panel) [18]": {"target": "T18, kinome (kinase panel) (Homo sapiens, UniProt Q8WU08)", "T18 construct": "purchased Eurofins DiscoverX", "settings": "YANK1 (STK32A); 1000 nM; read-out: Percent Control"}, "kinome (kinase panel) [19]": {"target": "T19, kinome (kinase panel) (Homo sapiens, UniProt P24723)", "T19 construct": "purchased Eurofins DiscoverX", "settings": "PRKCH; 1000 nM; read-out: Percent Control"}, "kinome (kinase panel) [20]": {"target": "T20, kinome (kinase panel) (Homo sapiens, UniProt P20794)", "T20 construct": "purchased Eurofins DiscoverX", "settings": "MAK; 1000 nM; read-out: Percent Control"}, "kinome (kinase panel) [21]": {"target": "T21, kinome (kinase panel) (Homo sapiens, UniProt Q13188)", "T21 construct": "purchased Eurofins DiscoverX", "settings": "MST2 (Entrez STK3); 1000 nM; read-out: Percent Control"}, "kinome (kinase panel) [22]": {"target": "T22, kinome (kinase panel) (Homo sapiens, UniProt Q52WX2)", "T22 construct": "purchased Eurofins DiscoverX", "settings": "SBK1; 1000 nM; read-out: Percent Control"}, "kinome (kinase panel) [23]": {"target": "T23, kinome (kinase panel) (Homo sapiens, UniProt Q9BXA7)", "T23 construct": "purchased Eurofins DiscoverX", "settings": "TSSK1B; 1000 nM; read-out: Percent Control"}, "kinome (kinase panel) [24]": {"target": "T24, kinome (kinase panel) (Homo sapiens, UniProt Q8IVH8)", "T24 construct": "purchased Eurofins DiscoverX", "settings": "MAP4K3; 1000 nM; read-out: Percent Control"}, "kinome (kinase panel) [25]": {"target": "T25, kinome (kinase panel) (Homo sapiens, UniProt O14965)", "T25 construct": "purchased Eurofins DiscoverX", "settings": "AURKA; 1000 nM; read-out: Percent Control"}, "kinome (kinase panel) [26]": {"target": "T26, kinome (kinase panel) (Homo sapiens, UniProt Q8NG66)", "T26 construct": "purchased Eurofins DiscoverX", "settings": "NEK11; 1000 nM; read-out: Percent Control"}, "kinome (kinase panel) [27]": {"target": "T27, kinome (kinase panel) (Homo sapiens, UniProt P10721, V559D/V654A)", "T27 construct": "purchased Eurofins DiscoverX", "settings": "read-out: Percent Control"}, "kinome (kinase panel) [28]": {"target": "T28, kinome (kinase panel) (Homo sapiens, UniProt Q8TD08)", "T28 construct": "purchased Eurofins DiscoverX", "T28 sequence (Q8TD08 whole entry)": "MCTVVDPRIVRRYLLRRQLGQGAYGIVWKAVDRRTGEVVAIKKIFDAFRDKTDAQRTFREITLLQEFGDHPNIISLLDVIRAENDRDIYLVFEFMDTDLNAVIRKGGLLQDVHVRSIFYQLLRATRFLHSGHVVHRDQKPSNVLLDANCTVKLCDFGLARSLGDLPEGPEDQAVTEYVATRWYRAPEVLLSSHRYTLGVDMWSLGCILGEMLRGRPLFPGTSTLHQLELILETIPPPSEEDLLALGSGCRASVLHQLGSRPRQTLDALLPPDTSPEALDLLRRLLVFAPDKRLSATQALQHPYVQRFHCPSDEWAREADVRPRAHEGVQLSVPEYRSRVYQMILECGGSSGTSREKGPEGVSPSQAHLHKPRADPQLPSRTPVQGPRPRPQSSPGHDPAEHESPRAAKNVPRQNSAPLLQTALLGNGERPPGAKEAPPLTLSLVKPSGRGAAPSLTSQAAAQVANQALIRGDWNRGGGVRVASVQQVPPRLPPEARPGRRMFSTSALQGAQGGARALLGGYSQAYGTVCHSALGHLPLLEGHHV", "settings": "ERK8 (Entrez MAPK15); 1000 nM; read-out: Percent Control"}, "kinome (kinase panel) [29]": {"target": "T29, kinome (kinase panel) (Homo sapiens, UniProt Q9UIK4)", "T29 construct": "purchased Eurofins DiscoverX", "T29 sequence (Q9UIK4 whole entry)": "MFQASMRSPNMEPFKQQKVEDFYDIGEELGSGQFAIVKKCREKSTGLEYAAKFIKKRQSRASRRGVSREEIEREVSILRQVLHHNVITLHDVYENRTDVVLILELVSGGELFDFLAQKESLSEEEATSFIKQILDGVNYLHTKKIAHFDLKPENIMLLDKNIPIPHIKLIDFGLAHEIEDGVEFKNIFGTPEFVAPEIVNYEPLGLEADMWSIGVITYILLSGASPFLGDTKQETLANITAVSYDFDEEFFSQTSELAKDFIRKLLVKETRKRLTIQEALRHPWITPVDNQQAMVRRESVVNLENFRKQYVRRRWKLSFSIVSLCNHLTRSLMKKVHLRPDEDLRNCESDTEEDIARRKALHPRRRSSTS", "settings": "DAPK2; 1000 nM; read-out: Percent Control"}, "kinome (kinase panel) [30]": {"target": "T30, kinome (kinase panel) (Homo sapiens, UniProt Q14012)", "T30 construct": "purchased Eurofins DiscoverX", "T30 sequence (Q14012 whole entry)": "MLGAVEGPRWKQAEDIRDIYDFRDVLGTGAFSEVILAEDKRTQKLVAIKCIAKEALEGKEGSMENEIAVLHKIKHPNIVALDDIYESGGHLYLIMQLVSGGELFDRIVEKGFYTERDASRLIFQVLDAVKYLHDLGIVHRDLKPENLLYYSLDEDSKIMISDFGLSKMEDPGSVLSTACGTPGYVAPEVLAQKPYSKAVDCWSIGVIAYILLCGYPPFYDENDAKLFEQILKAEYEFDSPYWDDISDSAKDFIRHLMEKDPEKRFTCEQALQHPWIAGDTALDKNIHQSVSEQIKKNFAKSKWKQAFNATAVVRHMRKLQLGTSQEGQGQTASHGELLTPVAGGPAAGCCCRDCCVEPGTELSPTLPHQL", "settings": "CAMK1; 1000 nM; read-out: Percent Control"}, "kinome (kinase panel) [31]": {"target": "T31, kinome (kinase panel) (Homo sapiens, UniProt P21802)", "T31 construct": "purchased Eurofins DiscoverX", "settings": "FGFR2; 1000 nM; read-out: Percent Control"}, "kinome (kinase panel) [32]": {"target": "T32, kinome (kinase panel) (Homo sapiens, UniProt O75582)", "T32 construct": "purchased Eurofins DiscoverX", "T32 sequence (O75582 whole entry)": "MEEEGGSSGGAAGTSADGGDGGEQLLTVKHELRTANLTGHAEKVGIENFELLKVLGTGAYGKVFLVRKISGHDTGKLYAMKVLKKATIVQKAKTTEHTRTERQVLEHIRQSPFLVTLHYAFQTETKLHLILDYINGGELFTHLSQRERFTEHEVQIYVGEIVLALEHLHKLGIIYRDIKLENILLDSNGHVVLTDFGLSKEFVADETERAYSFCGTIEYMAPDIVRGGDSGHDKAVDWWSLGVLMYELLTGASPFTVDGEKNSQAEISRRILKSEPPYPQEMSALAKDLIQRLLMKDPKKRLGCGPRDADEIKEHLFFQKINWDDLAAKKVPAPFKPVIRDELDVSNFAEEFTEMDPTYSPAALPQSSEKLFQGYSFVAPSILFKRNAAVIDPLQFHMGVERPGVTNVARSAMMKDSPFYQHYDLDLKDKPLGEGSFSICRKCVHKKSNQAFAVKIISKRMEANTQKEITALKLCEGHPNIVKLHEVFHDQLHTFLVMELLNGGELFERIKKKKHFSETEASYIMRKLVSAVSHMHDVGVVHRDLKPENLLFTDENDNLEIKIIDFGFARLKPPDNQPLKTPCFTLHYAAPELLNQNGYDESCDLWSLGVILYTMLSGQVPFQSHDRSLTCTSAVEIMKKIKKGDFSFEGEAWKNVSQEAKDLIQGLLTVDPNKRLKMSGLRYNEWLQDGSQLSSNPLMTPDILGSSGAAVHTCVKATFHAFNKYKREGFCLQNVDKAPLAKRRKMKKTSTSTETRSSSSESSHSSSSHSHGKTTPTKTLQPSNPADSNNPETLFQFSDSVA", "settings": "1000 nM, read-out: Percent Control"}, "kinome (kinase panel) [33]": {"target": "T33, kinome (kinase panel) (Homo sapiens, UniProt Q9UQM7)", "T33 construct": "purchased Eurofins DiscoverX", "settings": "CAMK2A; 1000 nM; read-out: Percent Control"}},
  "note": "Where two headings read alike, the source gives them in different places.",
  "data": [
    {"molecule": "CN(C)C(=O)c1cc2cnc(Nc3ccc(-c4csc5c(=O)cc(N6CCOCC6)oc45)cc3)nc2n1C1CCCC1", "note": "[SRX3177]", "values": [
      {"measurement": "remaining binding at 1 µM", "setting": "kinome (kinase panel) [1]", "result": 85, "unit": "%"},
      {"measurement": "remaining binding at 1 µM", "setting": "kinome (kinase panel) [2]", "result": 100, "unit": "%"},
      {"measurement": "remaining binding at 1 µM", "setting": "kinome (kinase panel) [3]", "result": 96, "unit": "%"},
      {"measurement": "remaining binding at 1 µM", "setting": "kinome (kinase panel) [4]", "result": 2.4, "unit": "%"},
      {"measurement": "remaining binding at 1 µM", "setting": "kinome (kinase panel) [5]", "result": 91, "unit": "%"},
      {"measurement": "remaining binding at 1 µM", "setting": "kinome (kinase panel) [6]", "result": 59, "unit": "%"},
      {"measurement": "remaining binding at 1 µM", "setting": "kinome (kinase panel) [7]", "result": 100, "unit": "%"},
      {"measurement": "remaining binding at 1 µM", "setting": "kinome (kinase panel) [8]", "result": 82, "unit": "%"},
      {"measurement": "remaining binding at 1 µM", "setting": "kinome (kinase panel) [9]", "result": 92, "unit": "%"},
      {"measurement": "remaining binding at 1 µM", "setting": "kinome (kinase panel) [10]", "result": 100, "unit": "%"},
      {"measurement": "remaining binding at 1 µM", "setting": "kinome (kinase panel) [11]", "result": 66, "unit": "%"},
      {"measurement": "remaining binding at 1 µM", "setting": "kinome (kinase panel) [12]", "result": 98, "unit": "%"},
      {"measurement": "remaining binding at 1 µM", "setting": "kinome (kinase panel) [13]", "result": 79, "unit": "%"},
      {"measurement": "remaining binding at 1 µM", "setting": "kinome (kinase panel) [14]", "result": 79, "unit": "%"},
      {"measurement": "remaining binding at 1 µM", "setting": "kinome (kinase panel) [15]", "result": 100, "unit": "%"},
      {"measurement": "remaining binding at 1 µM", "setting": "kinome (kinase panel) [16]", "result": 100, "unit": "%"},
      {"measurement": "remaining binding at 1 µM", "setting": "kinome (kinase panel) [17]", "result": 100, "unit": "%"},
      {"measurement": "remaining binding at 1 µM", "setting": "kinome (kinase panel) [18]", "result": 94, "unit": "%"},
      {"measurement": "remaining binding at 1 µM", "setting": "kinome (kinase panel) [19]", "result": 97, "unit": "%"},
      {"measurement": "remaining binding at 1 µM", "setting": "kinome (kinase panel) [20]", "result": 87, "unit": "%"},
      {"measurement": "remaining binding at 1 µM", "setting": "kinome (kinase panel) [21]", "result": 61, "unit": "%"},
      {"measurement": "remaining binding at 1 µM", "setting": "kinome (kinase panel) [22]", "result": 67, "unit": "%"},
      {"measurement": "remaining binding at 1 µM", "setting": "kinome (kinase panel) [23]", "result": 90, "unit": "%"},
      {"measurement": "remaining binding at 1 µM", "setting": "kinome (kinase panel) [24]", "result": 100, "unit": "%"},
      {"measurement": "remaining binding at 1 µM", "setting": "kinome (kinase panel) [25]", "result": 0, "unit": "%"},
      {"measurement": "remaining binding at 1 µM", "setting": "kinome (kinase panel) [26]", "result": 99, "unit": "%"},
      {"measurement": "remaining binding at 1 µM", "setting": "kinome (kinase panel) [27]", "result": 100, "unit": "%"},
      {"measurement": "remaining binding at 1 µM", "setting": "kinome (kinase panel) [28]", "result": 81, "unit": "%"},
      {"measurement": "remaining binding at 1 µM", "setting": "kinome (kinase panel) [29]", "result": 89, "unit": "%"},
      {"measurement": "remaining binding at 1 µM", "setting": "kinome (kinase panel) [30]", "result": 51, "unit": "%"},
      {"measurement": "remaining binding at 1 µM", "setting": "kinome (kinase panel) [31]", "result": 86, "unit": "%"},
      {"measurement": "remaining binding at 1 µM", "setting": "kinome (kinase panel) [32]; RPS6KA5(Kin.Dom.1-N-terminal)", "result": 100, "unit": "%"},
      {"measurement": "remaining binding at 1 µM", "setting": "kinome (kinase panel) [32]; RPS6KA5(Kin.Dom.2-C-terminal)", "result": 100, "unit": "%"},
      {"measurement": "remaining binding at 1 µM", "setting": "kinome (kinase panel) [33]", "result": 76, "unit": "%"}
    ]}
  ]
}
